Assays:
[1] = test system: three isotypes of HAS; details: cited from earlier work
[2] = Treatment of patients with 4MU; format: in vivo; details: 4×300 mg 4MU
[3] = cited from earlier work
[4] = test system: Choriod Plexus; experiment: Accumulation of labeled EV in the choroid plexus after tail vein injection of 4MU-treated EV; format: in vivo; details: 72 h after injection of 4MU-treated EV into tail veins of a mouse, n=4/condition; FIG. 3
Procedure: (A) Accumulation/absence of accumulation of labeled pEV (red) in the Choriod Plexus 72 h after injection of 4MU-treated EV into tail veins of a mouse (n=4/condition). (B) IHC of a hippocampal section and quantification of EVc pos. cells. Statistical significance by one-way ANOVA and Tukey's test, ***p<0.005.

[5] = test system: Huh7 liver cells; experiment: Uptake of HA, ADAM10/17, Hck and MMPs into EV from HAS-induced Huh7 liver cells (Western blot); format: cell-based
Procedure: (B): Hymecromone inhibits the uptake of HA into EV. […] Subsequently EV were purified from culture supernatant of Huh7 cells that were not treated for HAS induction (nil), from Huh7 cells that were treated for HAS induction (48 h; HAS-nd.) and from Huh7 cells that were treated for has induction and additionally incubated with Hymecromone (HAS-ind.+HyCr.). CD81 served as a loading control for pEV. Cell lysates from 293 T cells served as positive control for HA.
Subsequently EV were purified from culture supernatant of Huh7 cells that were not treated for HAS induction (nil), from Huh7 cells that were treated for HAS induction (48 h; HAS-ind.) and from Huh7 cells that were treated for HAS induction and additionally incubated with Hymecromone (HAS-nd.+HyCr.). Red arrows indicate the enzymatic active form of ADAM10 and ADAM17. CD81 served as a loading control for pEV. Cell lysates from 293 T cells served as positive control for HA.
In vitro a concentration of 300 μmol was sufficient to completely block the uploading of HA, Hck, and ADAM10 into vesicles. Whether these concentrations can be reached in circulation after oral uptake is not clear, as Hymecromone is efficiently metabolized in the […]. On the other hand PCpEV are generated by liver cells where Hymecromone is metabolized. […] Furthermore, there are likely inter-individual differences with respect to Hymecromone metabolization.
293Tcells were cultured in DMEM (Lonza), 10% (v/v) fetal bovine serum (FBS) with Penicillin-Strepto-mycin at 37° C., 5% CO2. For transient transfection, plasmids encoding the indicated proteins were transfected with Lipofectamine® LTX with Plus™ Reagent (Invitrogen) according to the manufacturer's instructions, or using the classical calcium phosphate procedure. Cells were used for experiments 24-72 h after transfection. Hymecromone was added at a final concentration of […] after transfection. For immunoblotting 20 μg of cellular protein lysate and 10 μg of EV lysate were loaded per lane. The latter corresponded to the production/secretion of 2-4 mio 293T cells within 48 h transfected and grown in one 10 cm dish.

## Cc1cc(=O)oc2cc(O)ccc12 [Hymecromone, 4-methylumbelliferone]
[1]
  inhibition of the three isotypes of HAS: efficiently inhibited
[2]; 32 old patient
  clinical outcome, Long COVID: fully recovered
[2]; patient
  clinical outcome, Alzheimer's disease (AD)-associated depression: improved significantly
[3]; at least 182 patients treated in clinical trials
  serious side effects in clinical trials: no serious side effects
[3]; efficient metabolism by the liver
  fraction of unchanged Hymecromone reaching systemic circulation: low
[4]
  EV upload and CP targeting: blocks
[5]; Huh7 cells treated for HAS induction (48 h) and incubated with Hymecromone, FIG. 2
  uptake of ADAM10 and 17 and Hck into EV: inhibits
[5]; Huh7 cells treated for HAS induction (48 h) and incubated with Hymecromone, Western blot, FIG. 1B
  uptake of HA into EV: inhibits
[5]; in vitro
  concentration sufficient to completely block the uploading of HA, Hck, and ADAM10 into vesicles: 300 µmol
[5]; pharmacological inhibition of HAS activity
  incorporation of LMW-HA, ADAM10/17, Hck, and MMPs into extracellular vesicles: efficiently blocked

Reference: patent US20250032444A1, “Prevention and treatment of depressive disorders and conditions promoted by protease containing plasma extracellular vesicles (PCpEV)” (Evexys Biotech Oy, priority 2021, published 2025)
